123 molecules from the SangsterLogP compilation can be followed below.

A word on the logP: it is a log measure of how a compound divides between an organic and an aqueous phase. High values mean a more lipophilic compound, low ones a more hydrophilic compound. Usually logD stands for the decadic logarithm of the distribution of all forms, ionised or not, between an organic phase and buffer at a given pH.

Structures are written as SMILES. Starred links: 1 amine or outer side, 2 acyl side, 3 side chain; linkers in the order of their positions; H or OH if unused. Positions of bridges follow the written chain, without caps; N, C: chain ends. Non-standard residues stand in square brackets, D forms with d. Residues, ends and D or L forms follow the SMILES beside them. Chains are numbered I, II in the order given. Actinocin(9to1) = Cc1c2oc3c(C)ccc(C(=O)[*:1])c3nc-2c(C(=O)[*:2])c(N)c1=O; NMeV = CN[CH](C(=O)O)C(C)C; Sar = CNCC(=O)O

A short description of the first data set: method code SF, from Hansch, C. & Leo, A. (1987). Log P database [Dataset]. Pomona College Medicinal Chemistry Project.
Conditions: not given
Regarding `C=C(C=O)CC`, the logP was found to be 1.24. `ICCCc1ccccc1` returned a logP of 3.9. Same read-out and setting: the result for `CCCC(=O)Nc1ccccc1` reads 2.05.

In turn, `CN(C)CCc1cccs1` displayed a logP of 1.99. `C(=N\N1CCCCC1)/c1ccccc1` displayed a logP of 3.04. On the same count and under the same terms, the result for `CC(=O)C(=Cc1ccccc1C)C(C)=O` reads 1.98; that for `Clc1ccc2[nH]c(CCc3nc4cc(Cl)ccc4[nH]3)nc2c1`, 1.13. Same read-out and setting: the same measure for `O=S1(=O)NC(CCl)=Nc2cc(Cl)ccc21`: 1.68. Consider `S=P(N1CC1)(N1CC1)N1CC1`, for which the logP was found to be 0.53. On the same count and under the same terms, the same measure for `CCC(C)NC(=O)C=C(c1ccc(Cl)cc1)C(C)C` (stereo not drawn): 4.03; for `CC1(C)OC(=O)c2ccccc21`: 1.73.

In turn, `N#CCC(=O)Nc1ccc(Cl)c(Cl)c1` yielded a logP of 2.72. For the molecule `O=Cc1cccc(Oc2ccccc2)c1`, the logP is 3.38. On to `c1cnc2[nH]ccc2c1`, for which the logP amounted to 1.82.

For the molecule `OCC(F)(F)F`, the logP came out at 0.32. The same measure, in the same setting: the same measure for `OCCOc1ccccc1`: 1.16; for `O=C(Cc1ccccc1)c1ccccc1`: 3.18; for `CCOC(=O)C(=Cc1cccc(OC)c1)C(=O)OCC`: 3.18. The molecule `COc1cc2c(c(OC)c1OC)-c1ccc(O)c(=O)cc1[C@@H](N)CC2` showed a logP of 0.26.

As for `c1ccc(COc2ccccc2)cc1`, the logP came out at 3.79.

`CCC1OC(=O)C(C)C(OC2CC(C)(OC)C(O)C(C)O2)C(C)C(OC2OC(C)CC(N(C)C)C2O)C2(C)CC(C)C3(OC(=O)OC(C3C)C1(C)O)O2` (stereo not drawn) yielded a logP of 3.11. Molecule `FC(F)(F)Br` gave a logP of 1.86. Still for that read-out and setting: the same measure for `O=C(Nc1ccc(Cl)c(Cl)c1)C(F)(F)F`: 3.9; for `COc1cc(C=O)ccc1OCCO`: 0.58; for `O=[N+]([O-])c1ccc(C=Cc2nccs2)o1`: 1.97. The molecule `CCC1(C)CCC(=O)NC1=O` (stereo not drawn) gave a logP of 0.23.

`OC(c1nc2cc(Cl)ccc2[nH]1)C(O)c1nc2cc(Cl)ccc2[nH]1` (stereo not drawn) gave a logP of 1.21. Same read-out and setting: the same measure for `OC(O)(C(F)(F)F)C(F)(F)F`: 1.46; for `CO[C@H]1C=CO[C@@]2(C)Oc3c(C)c(O)c4c(O)c(c(C=NN5CCNCC5)c(O)c4c3C2=O)NC(=O)C(C)=CC=C[C@H](C)[C@H](O)[C@@H](C)[C@@H](O)[C@@H](C)[C@H](OC(C)=O)[C@@H]1C`: 1.12. The same measure, in the same setting: the same measure for `NC(=O)/C=C/c1ccc2c(c1)OCO2`: 1.4; for `CCOC(=O)C(=Cc1ccccc1)C(=O)OCC`: 3.13; for `COC(=O)c1c(C)n(C)c2c1c1c(O)c3c(O)c(C)c4c(c32)C(=O)C(C)(OC=CC(OC)C(C)C(OC(C)=O)C(C)C(O)C(C)C(O)C(C)C=CC=C(C)C(=O)N1)O4` (stereo not drawn): 1.46. In turn, `CCOC(=O)C(Cc1ccccc1)C(=O)OCC` yielded a logP of 2.76. Still for that read-out and setting: the same measure for `O=C1CCC2CCCCC2C1` (stereo not drawn): 1.97; for `CN(C)C#N`: -0.15; for `CN(C(=O)CCOS(C)(=O)=O)c1ccc(S(=O)(=O)N(C)C)cc1`: -0.68. Still for that read-out and setting: the result for `O=S1(=O)NC(C2CC2)=Nc2cc(Cl)ccc21` reads 1.98; that for `CCOC(=O)C(=Cc1ccccc1OC)C(C)=O`, 2.39. On the same count and under the same terms, the result for `O=[N+]([O-])c1ccc2[nH]ccc2c1` reads 2.53; that for `CCCOP(=O)(OCCC)OCCC`, 1.87.

Regarding `CCc1cnc(C=Cc2ccc([N+](=O)[O-])o2)nc1`, the logP turned out to be 1.55. Molecule `CCCCS` had a logP of 2.28. `Nc1ccccc1I`: the logP came to 2.32. The same measure, in the same setting: the result for `C=CCOc1ccccc1` reads 2.94; that for `CCC(=O)c1ccncc1`, 0.77. Regarding `O=C1OCc2ccccc21`, the logP amounted to 0.8. The logP values of the last two molecules are within 0.2 log units of each other. `COC[C@H]1O[C@@H](O)[C@H](NC(=O)N(CCCl)N=O)[C@@H](OC)[C@@H]1OC` displayed a logP of 0.8. In turn, `NC1=Nc2cc(Cl)ccc2S(=O)(=O)N1` had a logP of 0.91. In the case of `O=[N+]([O-])c1cccc(I)c1`, the logP turned out to be 2.94. The same measure, in the same setting: the same measure for `CN(C)C(=O)Oc1ccccc1[N+](=O)[O-]`: 1.35; for `COc1cccc(C(N)=O)c1`: 0.85. Same read-out and setting: the result for `NS(=O)(=O)NS(=O)(=O)Nc1ccccc1` reads 0.02. `CC1(C)Oc2c(O)cccc2C1=O` gave a logP of 1.87.

`C(=C\c1ccccn1)/c1ccccn1` gave a logP of 2.11.

For the molecule `CCCCl`, the logP came out at 2.04. Same read-out and setting: the result for `CCOc1ccc(C(N)=O)cc1` reads 1.3. On the same count and under the same terms, the same measure for `C1OC1CN1CCN(CC2CO2)CC1` (stereo not drawn): -0.84; for `CNC(=O)Oc1cc(C)c(C)cc1C`: 2.52; for `CN(C(=O)CCBr)c1ccc(S(=O)(=O)N(C)C)cc1`: 1.13.

Molecule `CC(C)(C)[N+]([O-])=NC#N` gave a logP of 1.4. Same read-out and setting: the result for `O=NN1CCOCC1` reads -0.3. On the same count and under the same terms, the same measure for `CCCOc1ccccc1`: 3.18; for `CCCCCc1cn[nH]c1`: 2.96; for `O=S1(=O)N=C(C2CCCC2)Nc2ccccc21`: 1.83. Same read-out and setting: the same measure for `CC[C@H]1OC(=O)[C@H](C)[C@@H](OC2CC(C)(OC)C(O)C(C)O2)C(C)[C@@H](OC2OC(C)CC(N(C)C)C2O)[C@](C)(O)C[C@@H](C)C(=O)[C@H](C)[C@@H](O)[C@H]1C` (stereo partly drawn): 3.12; for `Cc1oc2cc(OCC#N)ccc2c(=O)c1C`: 1.96; for `CN(N=Nc1ccc(C(N)=O)cc1)C(C)(C)C`: 2.61. In the case of `CCC1=Nc2cc(Cl)ccc2S(=O)(=O)N1`, the lipophilicity (logP) is 1.61.

As to `COC(=O)c1ccccc1NC(C)=O`, the logP turned out to be 1.65. `Oc1cccnc1`: the logP amounted to 0.48.

`COP(=O)(OC)Oc1ccccc1` displayed a logP of 1.22. The same measure, in the same setting: the result for `Cc1ccncc1` reads 1.22; that for `COc1ccc(C(C)=O)c(N)c1`, 1.76; that for `Nc1ccc2ccccc2c1S(=O)(=O)O`, -1.16. The same measure, in the same setting: the same measure for `Cc1cccc([N+]([O-])=NC#N)c1`: 2.49; for `COCCC(=O)N(C)c1ccc(S(=O)(=O)N(C)C)cc1`: 0.33; for `O=C1c2ccccc2C(=O)C1(O)O`: 0.67. With `O=S1(=O)Nc2ccccc2N1`, the logP was 1.12. Still for that read-out and setting: the result for `O=S1(=O)NC(C2CC=CC2)=Nc2ccccc21` reads 1.53. On the same count and under the same terms, the result for `N#CCc1cccs1` reads 1.26. Same read-out and setting: the result for `Nc1nccs1` reads 0.38; that for `O=C(Nc1ccccc1)NC1CC(O)C(CO)OC1O` (stereo not drawn), -0.61. `N#Cc1ccc(OC(=O)CNC(=O)c2ccccc2)cc1` gave a logP of 2.1. On the same count and under the same terms, the result for `c1cnc2ncncc2n1` reads -0.58; that for `Cc1ccc(S(=O)(=O)Oc2ccccc2C(=O)N(C)C)cc1`, 2.01. The same measure, in the same setting: the result for `CN(C(=O)CCI)c1ccc(S(=O)(=O)N(C)C)cc1` reads 1.39; that for `CC(=O)Nc1ccc(N(C)C)cc1`, 1; that for `COc1ccccc1C=CC(=O)OCCOc1ccc(C=O)cc1OC`, 3.65. The same measure, in the same setting: the same measure for `COc1cc(C=O)ccc1OCCOC(=O)c1ccccc1Cl`: 3.21; for `c1ccc(-c2nc3ccccc3s2)cc1`: 4.26; for `COc1cc(S(C)=O)ccc1-c1cn2ccnc(OC)c2n1` (stereo not drawn): 1.49.

The molecule `CCCC(=O)OCC(O)CO` (stereo not drawn) displayed a logP of -0.17. On the same count and under the same terms, the same measure for `Cn1c(=O)cnc2ccccc21`: 0.79. Same read-out and setting: the result for `CC(=O)Nc1cccc(/N=N/N(C)C)c1` reads 1.61. Same read-out and setting: the same measure for `BrCCBr`: 1.96.

As to `COC(=O)NS(=O)(=O)c1ccc(N)cc1`, the logP was -0.27. Same read-out and setting: the result for `COc1ccc(Cn2ccnc2C=Cc2ccc([N+](=O)[O-])o2)cc1` reads 1.37; that for `Cc1ccc(N)nc1`, 1.02.

On to `NC(=S)NN=Cc1ccccc1`, for which the logP was 1.86.

As for `Nc1ccc(OC(=O)CNC(=O)c2ccccc2)cc1`, the logP stood at 1.01.

Molecule `CC1OC(=O)c2ccccc21` (stereo not drawn) returned a logP of 1.41. As for `NC(=O)c1ncn2c(=O)n(CCCl)nnc12`, the logP was -0.47.

Staying with this data set, now noted: pH 1.0.
With `CC(=O)c1ccccc1C(=O)O`, the logD amounted to 0.81.

The same data set, now with this note: pH 2.0.
The molecule `O=C1CC(=O)NC(=O)N1` displayed a logD of -1.41.

The same data set, now with this note: pH 3.0.
Turning to `CC1=C(C(=O)O)N2C(=O)[C@@H](NC(=O)Cc3cccs3)[C@H]2SC1`, the logD worked out at 0.61.

Still in this data set, the particulars now being: pH 5.0.
In turn, `CC(C)c1cccc(O)c(=O)c1` displayed a logD of 1.82.

The data set is the same for the next values; noted with them: pH 7.0.
For the molecule `CC(=O)Oc1ccc(C(C)=O)cc1`, the logD was 1.29. Still for that read-out and setting: the same measure for `NC(=O)c1ccc(N)nc1`: 0.7; for `O=Cc1cccc([N+](=O)[O-])c1`: 1.47.

In the case of `CS(=O)(=O)c1ccc(Cl)cc1`, the logD was 1.06.

Staying with this data set, now noted: pH 7.4.
`CCn1c(=O)c(N(C)C)c(C)n(-c2ccccc2)c1=O` yielded a logD of 2.29. On the same count and under the same terms, the same measure for `Nc1nncs1`: -0.57; for `Cc1c2oc3c(C)ccc(C(=O)NC4C(=O)NC(C(C)C)C(=O)N5CCCC5C(=O)N(C)CC(=O)N(C)C(C(C)C)C(=O)OC4C)c3nc-2c(C(=O)NC2C(=O)NC(C(C)C)C(=O)N3CCCC3C(=O)N(C)CC(=O)N(C)C(C(C)C)C(=O)OC2C)c(N)c1=O` (stereo not drawn) (I: TVP[Sar][NMeV] / II: TVP[Sar][NMeV]; ester I:1-I:C, II:1-II:C; linker I:N-II:N via Actinocin(9to1); configuration not given here): 3.21; for `CCCCNc1c(C)n(C)c(=O)n(-c2ccccc2)c1=O`: 1.69. Regarding `Cc1c(N(C)C)c(=O)n(C)c(=O)n1C`, the logD stood at 0.99.

The same data set, now with this note: pH 7.5.
`CC1OC(C)OC(C)O1` (stereo not drawn) returned a logD of 0.67.

The same data set, now with this note: pH 8.0.
`OC(c1ccccc1)c1ccccn1` (stereo not drawn) returned a logD of 1.52.

Still in this data set, the particulars now being: pH 10.8.
The molecule `CNC(=S)NCCSCc1nc[nH]c1C` had a logD of 0.59.

The same data set, now with this note: pH 11.0.
`CC(C)NCc1cccnc1` came in with a logD of 0.82.

Still in this data set, the particulars now being: pH 13.0.
As for `CC(=O)Nc1cccc(OCc2cccc(/N=C(\N)N=C(N)N)c2)c1`, the logD is 1.82. Take `CC1(C)N=C(N)N=C(N)N1c1ccc(Br)cc1`: the logD came out at 1.09.

`CC1(C)N=C(N)N=C(N)N1c1ccc(I)cc1` displayed a logD of 1.39. The same measure, in the same setting: the same measure for `CNC1(c2ccccc2Cl)CCCCC1=O` (stereo not drawn): 2.18.
